Literature values, collected in patent US7358226B2, “Ultrasonic concentration of drug delivery capsules” (The Regents of the University of California, priority 2003, dated 2008).

Legend:
P-gp = target: T1, P-gp (Mus musculus, UniProt P21447)
T1 construct: host or cells: mouse brain in vivo (endogenous protein)

P-glycoprotein = target: T2, P-glycoprotein (Mus musculus, UniProt P21447)
T2 construct: host or cells: mouse brain in vivo (endogenous protein)

tumor = conditions: paclitaxel alone

T1 sequence (P21447 whole entry): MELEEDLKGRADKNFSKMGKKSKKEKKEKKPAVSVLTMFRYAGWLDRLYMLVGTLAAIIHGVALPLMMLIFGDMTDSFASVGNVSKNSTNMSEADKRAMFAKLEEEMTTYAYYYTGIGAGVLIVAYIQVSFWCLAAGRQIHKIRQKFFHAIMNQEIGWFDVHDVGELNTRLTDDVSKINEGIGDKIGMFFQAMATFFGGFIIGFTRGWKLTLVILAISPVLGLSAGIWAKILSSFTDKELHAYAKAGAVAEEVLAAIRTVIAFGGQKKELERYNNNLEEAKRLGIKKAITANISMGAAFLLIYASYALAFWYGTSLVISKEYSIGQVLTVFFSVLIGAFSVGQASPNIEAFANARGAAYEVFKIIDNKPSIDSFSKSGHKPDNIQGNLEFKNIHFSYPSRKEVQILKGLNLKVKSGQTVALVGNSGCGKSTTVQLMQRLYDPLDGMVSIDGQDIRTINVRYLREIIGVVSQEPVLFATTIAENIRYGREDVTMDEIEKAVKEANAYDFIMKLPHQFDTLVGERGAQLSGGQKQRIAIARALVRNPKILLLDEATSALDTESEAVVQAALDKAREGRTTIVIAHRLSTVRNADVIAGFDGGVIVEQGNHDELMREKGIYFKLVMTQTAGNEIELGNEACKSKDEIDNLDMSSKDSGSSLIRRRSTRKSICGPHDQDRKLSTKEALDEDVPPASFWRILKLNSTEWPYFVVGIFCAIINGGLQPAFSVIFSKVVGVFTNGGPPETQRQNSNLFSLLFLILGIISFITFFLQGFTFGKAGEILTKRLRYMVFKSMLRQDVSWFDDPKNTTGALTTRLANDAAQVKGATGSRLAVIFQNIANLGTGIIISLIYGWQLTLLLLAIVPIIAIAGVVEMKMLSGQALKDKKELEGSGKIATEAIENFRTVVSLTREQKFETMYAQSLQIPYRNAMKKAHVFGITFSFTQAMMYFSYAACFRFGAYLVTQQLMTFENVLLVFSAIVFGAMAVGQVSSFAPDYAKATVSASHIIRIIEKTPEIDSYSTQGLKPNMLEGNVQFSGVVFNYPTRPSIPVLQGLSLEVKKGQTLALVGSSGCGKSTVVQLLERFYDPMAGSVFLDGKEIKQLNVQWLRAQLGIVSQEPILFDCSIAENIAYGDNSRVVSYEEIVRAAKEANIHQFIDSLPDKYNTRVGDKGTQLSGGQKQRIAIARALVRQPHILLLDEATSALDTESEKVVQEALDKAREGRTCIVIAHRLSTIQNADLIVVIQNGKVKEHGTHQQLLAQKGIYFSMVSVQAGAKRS
T2 sequence (P21447 whole entry): as above

Structure (SMILES): CC(=O)O[C@H]1C(=O)[C@@]2(C)[C@H]([C@H](OC(=O)c3ccccc3)[C@]3(O)C[C@H](OC(=O)[C@H](O)[C@@H](NC(=O)c4ccc([18F])cc4)c4ccccc4)C(C)=C1C3(C)C)[C@]1(OC(C)=O)CO[C@@H]1C[C@@H]2O [F18-fluoropaclitaxel]
- increase of F18-fluoropaclitaxel uptake in the brain (P-gp; P-gp knockout mice relative to wildtype controls): 1400%
- clearance (P-gp; mouse, in vivo): rapid clearance
- tissue uptake (P-gp; mouse, in vivo): high uptake in many tissues

Structure (SMILES): C/C=C/C[C@@H](C)C(=O)[C@H]1C(=O)N[C@@H](C(C)C)C(=O)N(C)CC(=O)N(C)[C@@H](CC(C)C)C(=O)N[C@@H](C(C)C)C(=O)N(C)[C@@H](CC(C)C)C(=O)N[C@@H](C)C(=O)N[C@H](C)C(=O)N(C)[C@@H](CC(C)C)C(=O)N(C)[C@@H](CC(C)C)C(=O)N(C)[C@@H](C(C)C)C(=O)N1C [Valspodar]
- brain concentrations of paclitaxel (P-glycoprotein; Valspodar co-administered with paclitaxel): significantly increase

Structure (SMILES): COc1cc2c(cc1OC)CN(CCc1ccc(NC(=O)c3cc(OC)c(OC)cc3NC(=O)c3cnc4ccccc4c3)cc1)CC2 [XR9576]
- increase of uptake of F18-fluoropaclitaxel (P-gp; preadministration of XR9576, increase was not significant): 20%

Structure (SMILES): CC(=O)O[C@H]1C(=O)[C@@]2(C)[C@H]([C@H](OC(=O)c3ccccc3)[C@]3(O)C[C@H](OC(=O)[C@H](O)[C@@H](NC(=O)c4ccccc4)c4ccccc4)C(C)=C1C3(C)C)[C@]1(OC(C)=O)CO[C@@H]1C[C@@H]2O [paclitaxel, Paclitaxel]
- penetration of paclitaxel into the brain (P-glycoprotein; P-glycoprotein knockout mice): markedly increased
- effect on tumor volume (tumor): did not affect tumor volume
